Data set [1] relates to Chikungunya virus. Description: Antiviral activity against Chikungunya virus Indian Ocean strain 899 infected in African green monkey Vero cells assessed as inhibition of viral-induced cytopathic effect by measuring concentration required for maximum activity measured on day 5 post infection by MTS/PMS assay. The format is functional, Indian Ocean 899. On the technique in general: Damage to the host cells serves as the signal in cytopathic effect assays.

In data set [2] the test system is Chikungunya virus. Description: Antiviral activity against Chikungunya virus Indian Ocean strain 899 infected in African green monkey Vero cells assessed as inhibition of viral-induced cytopathic effect measured on day 5 post infection by MTS/PMS assay. The settings on record: for pEC50 / EC90: Chikungunya virus, Indian Ocean 899, Vero, 120 h. The format is functional, organism-based, Indian Ocean 899.

The nature of data set [3]: Cytotoxicity against African green monkey Vero cells by MTS/PMS assay. The format is cell-based. As to conditions: chlorocebus sabaeus.
A short description of data set [4]: Selectivity index, ratio of CC50 for African green monkey Vero cells to EC50 for Chikungunya virus Indian Ocean strain 899 infected in African green monkey Vero cells. The class given is toxicity. The settings on record: read-out: Ratio CC50/EC50.

For orientation: pEC50 means the EC50 on a negative log10 scale, so that one unit is a factor of ten. In general, EC90 refers to the point of the concentration-response curve where the effect stands at 90%. The CC50 is the concentration giving 50% cytotoxicity.

pEC50: −log10 of the molar value. Some results are limits rather than exact numbers.

Turning to `CCOc1ccc(/C=N/NC(=O)CC(=O)c2ccc(C(C)(C)C)cc2)cc1OCC`, the Activity with Chikungunya virus [1] amounted to 244 µM. Moreover, in the data set on Chikungunya virus [2], the Imax is 4%, the pEC50 was < 3.61 and the EC90 was > 244 µM. In data set [3], this molecule yielded a CC50 of 81 µM.

Consider `CCOc1ccc(/C=N/NC(=O)/C=C/c2ccc(C(F)(F)F)cc2)cc1OCC`, for which the Activity in the data set with Chikungunya virus [1] amounted to 69 µM. Also, the selectivity ratio in data set [4] came to 1.7. In the data set on Chikungunya virus [2], the Imax is on record as 75% and the pEC50 is 4.31. The same molecule had a CC50 in data set [3] of 84.1 µM.

For the molecule `C/C(=N\NC(=O)N/C=C/c1ccc(C(C)(C)C)cc1)c1ccc(C2CCCCC2)cc1`, in the data set with Chikungunya virus [1], the Activity amounted to 79 µM. For the same molecule, the selectivity ratio in data set [4] came out at 2.9. Also, in the data set with Chikungunya virus [2], the Imax is 90%, the pEC50 was 4.37 and the EC90 stood at 78.8 µM. This molecule yielded a CC50 in data set [3] of 123 µM.

Consider `CC(C)(C)c1ccc(CCc2nnc(-c3ccc(O)cc3)o2)cc1`, for which the Activity in the data set on Chikungunya virus [1] worked out at 103 µM. Moreover, the selectivity ratio in data set [4] was found to be 1.8. Also, in the data set on Chikungunya virus [2], the Imax was determined as 69%, the pEC50 was 3.97 and the EC90 is > 103 µM. Besides, the CC50 in data set [3] came to 191 µM.

With `Cc1ccc(/C=N/NC(=O)CC(=O)c2ccc(C(C)(C)C)cc2)cc1`, the Activity with Chikungunya virus [1] turned out to be 74 µM. Moreover, in the data set on Chikungunya virus [2], the Imax worked out at 13%, the pEC50 was < 4.13 and the EC90 was > 74 µM. Besides, the CC50 in data set [3] came out at 84 µM.

For `CC(C)(C)c1ccc(/C=C/NC(=O)N/N=C/c2ccc(O)cc2)cc1`, in the data set with Chikungunya virus [1], the Activity is 7.4 µM. Moreover, the selectivity ratio in data set [4] amounted to 1.9. In addition, in the data set with Chikungunya virus [2], the Imax amounted to 89%, the pEC50 was 5.25 and the EC90 amounted to 7.5 µM. In data set [3], this molecule displayed a CC50 of 10.4 µM.

Turning to `Cc1ccc(-c2[nH]c3ccccc3c2/C=N/NC(=S)NCCc2ccccc2)cc1`, the Activity in the data set with Chikungunya virus [1] was 2.5 µM. The selectivity ratio in data set [4] worked out at 4.4. Besides, in the data set with Chikungunya virus [2], the Imax was 100%, the pEC50 was 5.74 and the EC90 amounted to 2.5 µM. Besides, half-maximal cytotoxicity in data set [3] (CC50) was put at 7.8 µM.

As to `CCOc1ccc(-c2nnc(CCc3ccc(C(C)(C)C)cc3)o2)cc1OCC`, in the data set on Chikungunya virus [1], the Activity was 13.5 µM. The selectivity ratio in data set [4] was 1.2. In the data set with Chikungunya virus [2], the Imax is listed as 61% and the pEC50 was 4.91. For the same molecule, in data set [3], the midpoint of cytotoxicity, the CC50, lay at 15.5 µM.

`C/C(=N\NC(=S)NCCc1ccccc1)c1ccc(C2CCCCC2)cc1`: the Activity in the data set with Chikungunya virus [1] is 6 µM. Moreover, the selectivity ratio in data set [4] came to 12.2. In the data set on Chikungunya virus [2], the Imax is listed as 90%, the pEC50 was 5.37 and the EC90 worked out at 5.9 µM. Further, in data set [3], the CC50 is 52.9 µM.

Take `C/C(=N\NC(=O)c1nc2ccccc2[nH]1)c1ccc(C2CCCCC2)cc1`: in the data set with Chikungunya virus [1], the Activity was found to be 4.3 µM. Besides, the selectivity ratio in data set [4] worked out at 2.4. In addition, in the data set on Chikungunya virus [2], the Imax came out at 83% and the pEC50 was 5.59. For the same molecule, the CC50 in data set [3] is 6.2 µM.

Turning to `Cc1ccc(/C=N/NC(=O)/C=C/c2ccc(-c3ccccc3)cc2)cc1`, in the data set with Chikungunya virus [1], the Activity was determined as 294 µM. The selectivity ratio in data set [4] is > 1.3. Further, in the data set with Chikungunya virus [2], the Imax is reported as 78%, the pEC50 is 3.64 and the EC90 was > 294 µM. Besides, the CC50 in data set [3] was > 294 µM.

As for `Cc1ccc(-c2cn(CCc3ccccc3)nn2)cc1`, in the data set on Chikungunya virus [1], the Activity amounted to 163 µM. For the same molecule, the selectivity ratio in data set [4] was determined as 1.6. Moreover, in the data set with Chikungunya virus [2], the Imax is recorded as 74% and the pEC50 is 3.91. In data set [3], this molecule yielded a CC50 of 200 µM.

Turning to `CC(C)(C)c1ccc(C(=O)CC(=O)N/N=C/c2ccc(O)cc2)cc1`, the Activity with Chikungunya virus [1] was found to be 7.9 µM. In addition, the selectivity ratio in data set [4] was 2.3. Further, in the data set on Chikungunya virus [2], the Imax turned out to be 87%, the negative logarithm of the EC50 (pEC50) is 5.14 and the concentration for an effect of 90% (EC90) was 8 µM. This molecule displayed a CC50 in data set [3] of 14.7 µM.

Turning to `Cc1ccc(/C=N/NC(=O)/C=C/c2ccc(C(F)(F)F)cc2)cc1`, the Activity in the data set on Chikungunya virus [1] amounted to 99 µM. Besides, the selectivity ratio in data set [4] amounted to 2.1. In the data set on Chikungunya virus [2], the Imax came out at 61%, the pEC50 was 4.02 and the 90% effect concentration (EC90) was > 150 µM. The molecule also gave a CC50 in data set [3] of 203 µM.

On to `Oc1ccc(/C=N/NC(=S)NCCc2ccccc2)cc1`, for which the Activity with Chikungunya virus [1] worked out at 51 µM. Further, in data set [4], the selectivity ratio was determined as 1.8. Besides, in the data set with Chikungunya virus [2], the Imax was 67% and the pEC50 was 4.32. The molecule also gave a CC50 in data set [3] of 87.8 µM.

Turning to `O=C(N/N=C/c1ccc(O)cc1)c1nc2ccccc2[nH]1`, in the data set with Chikungunya virus [1], the Activity was 357 µM. In the data set on Chikungunya virus [2], the Imax is 33%, the pEC50 is < 3.45 and the EC90 is > 357 µM.

Take `C/C(=N\NC(=O)/C=C/c1ccc(C(C)C)cc1)c1ccc(C2CCCCC2)cc1`: the Activity in the data set with Chikungunya virus [1] turned out to be 193 µM. For the same molecule, in the data set with Chikungunya virus [2], the Imax is 13%, the pEC50 is < 3.71 and the EC90 is > 193 µM.

With `Cc1ccc(/C=N/NC(=O)c2ccc3ccccc3n2)cc1`, the Activity in the data set with Chikungunya virus [1] worked out at 346 µM. For the same molecule, in the data set with Chikungunya virus [2], the Imax was 3%, the pEC50 is < 3.46 and the EC90 was > 346 µM.

As to `CCOc1ccc(/C=N/NC(=S)NCCc2ccccc2)cc1OCC`, the Activity in the data set on Chikungunya virus [1] stood at 9.3 µM. Also, in data set [4], the selectivity ratio is 18. Besides, in the data set with Chikungunya virus [2], the Imax is 90%, the pEC50 was 5.23 and the EC90 worked out at 9.8 µM. Half-maximal cytotoxicity in data set [3] (CC50) was put at 109 µM.

`CCOc1ccc(/C=N/NC(=O)/C=C/c2ccc(C(C)C)cc2)cc1OCC`: the Activity with Chikungunya virus [1] is 8 µM. In the data set with Chikungunya virus [2], the Imax turned out to be 30%, the pEC50 is < 4.53 and the EC90 is > 29.2 µM.

Turning to `Cc1ccc(/C=N/NC(=O)c2cnc3ccccc3c2)cc1`, in the data set with Chikungunya virus [1], the Activity came out at 346 µM. Also, in the data set on Chikungunya virus [2], the Imax came to 27%, the pEC50 is < 3.46 and the EC90 was > 346 µM.

Consider `Cc1ccc(/C=N/NC(=O)/C=C/c2ccc(C(C)C)cc2)cc1`, for which, in the data set with Chikungunya virus [1], the Activity was 20 µM. Also, the selectivity ratio in data set [4] came out at 1. For the same molecule, in the data set with Chikungunya virus [2], the Imax was 50% and the pEC50 was 4.59. This molecule also returned a CC50 in data set [3] of 25 µM.

`Cc1ccc(/C=N/NC(=O)N/C=C/c2ccc(C(C)(C)C)cc2)cc1`: the Activity in the data set with Chikungunya virus [1] is 187 µM. Further, the selectivity ratio in data set [4] turned out to be 0.8. Also, in the data set on Chikungunya virus [2], the Imax is reported as 50%, the pEC50 was 3.61 and the EC90 is > 298 µM. The molecule further showed a CC50 in data set [3] of 192 µM.

Take `Cc1ccc(CNC(=O)N/C=C/c2ccccc2)cc1`: the Activity in the data set with Chikungunya virus [1] was 376 µM. Besides, in the data set with Chikungunya virus [2], the Imax is on record as 18%, the pEC50 is < 3.42 and the EC90 is > 376 µM.

Take `CCOc1ccc(C(=O)NNC(=O)/C=C/c2ccc(C(C)(C)C)cc2)cc1OCC`: in the data set with Chikungunya virus [1], the Activity was 6.3 µM. Besides, in the data set with Chikungunya virus [2], the Imax was determined as 11%, the pEC50 is < 3.61 and the EC90 is > 244 µM.

As for `Cc1ccc(-c2nnc(CCc3ccccc3)o2)cc1`, the Activity in the data set on Chikungunya virus [1] was found to be 1 µM. In addition, in the data set on Chikungunya virus [2], the Imax was found to be 2%, the pEC50 was < 3.42 and the EC90 is > 378 µM.

These data come from ChEMBL document CHEMBL4196052, “Rational modifications on a benzylidene-acrylohydrazide antiviral scaffold, synthesis and evaluation of bioactivity against Chikungunya virus” (Eur J Med Chem, 2018).
